≈ marks a conversion by molar mass, not a printed value. Where “and” joins values, the source holds several entries; their conditions need not be identical. Equal entries are not always repeated. Blank lines part the entries; values can stand above or below the compound they belong to.
What was measured:
Experiment in all cases: ≥ marks a high value that may be exact or a test limit, other limits are often not marked, values filed in µg/mL are converted to µM
[1] = tested on: Candida albicans ATCC 200955
[2] = tested on: Enterococcus faecium ATCC 700221
[3] = tested on: Escherichia coli ATCC 25922
[4] = tested on: Pseudomonas aeruginosa ATCC 27853
[5] = tested on: Staphylococcus aureus ATCC 33591
Escherichia coli W160-37 = tested on: Escherichia coli W160-37
Pseudomonas aeruginosa = tested on: Pseudomonas aeruginosa
Staphylococcus aureus = tested on: Staphylococcus aureus
Escherichia coli ML-35p = tested on: Escherichia coli ML-35p
[6] = tested on: Staphylococcus aureus ATCC 700699
[7] = tested on: Staphylococcus aureus ATCC 25923
[8] = tested on: Klebsiella pneumoniae ATCC 700603
[9] = tested on: Staphylococcus aureus ATCC 29213
[10] = tested on: Bacillus subtilis ATCC 6633
[11] = tested on: Klebsiella pneumoniae ATCC 10031
[12] = tested on: Micrococcus luteus ATCC 10240
[13] = tested on: Salmonella enterica subsp. enterica serovar Typhimurium ATCC 14028
[14] = tested on: Shigella dysenteriae ATCC 9752
[15] = tested on: Staphylococcus aureus ATCC 6538P
[16] = tested on: Staphylococcus aureus TK784
[17] = tested on: Staphylococcus epidermidis ATCC 12228
Escherichia coli MG1655 = tested on: Escherichia coli MG1655
[18] = tested on: Staphylococcus aureus ATCC 33592
Bacillus cereus = tested on: Bacillus cereus
[19] = tested on: Batrachochytrium dendrobatidis
Escherichia coli = tested on: Escherichia coli
Leuconostoc lactis = tested on: Leuconostoc lactis
Listeria innocua = tested on: Listeria innocua
Micrococcus luteus = tested on: Micrococcus luteus
Pasteurella multocida = tested on: Pasteurella multocida
[20] = tested on: Staphylococcus epidermidis
Streptococcus uberis = tested on: Streptococcus uberis
[21] = tested on: Acinetobacter baumannii ATCC 19606
Acinetobacter baumannii = tested on: Acinetobacter baumannii
[22] = tested on: Bacillus subtilis ATCC 6051
[23] = tested on: Candida albicans ATCC 90028
[24] = tested on: Cryptococcus neoformans ATCC 208821
[25] = tested on: Klebsiella pneumoniae ATCC 13883
[26] = tested on: Klebsiella pneumoniae ATCC BAA-2146
Klebsiella pneumoniae = tested on: Klebsiella pneumoniae
[27] = tested on: Staphylococcus aureus ATCC 43300

SMILES: CC(=O)NCC(=O)N[C@@H](Cc1ccccc1)C(=O)N[C@@H](CCCN=C(N)N)C(=O)N[C@@H](CCCCN)C(=O)N[C@@H](Cc1ccccc1)C(=O)N[C@@H](Cc1cnc[nH]1)C(=O)N[C@@H](CCCCN)C(=O)N[C@@H](Cc1ccccc1)C(=O)N[C@@H](Cc1c[nH]c2ccccc12)C(=O)N[C@@H](C)C(N)=O [GFRKFHKFWA]
MIC (Escherichia coli ML-35p): ≥ 500 µM
MIC [6]: ≥ 500 µM

SMILES: CC[C@H](C)[C@H](NC(=O)[C@H](CCCCN)NC(=O)[C@H](CCCCN)NC(=O)[C@H](CC(C)C)NC(=O)[C@H](CC(C)C)NC(=O)CN)C(=O)N[C@@H](CCCCN)C(=O)N[C@H](C(=O)N[C@@H](CC(C)C)C(=O)N[C@@H](CC(C)C)C(N)=O)[C@@H](C)O [GLLKKIKTLL]
MIC [1]: ≥ 56.8 µM
MIC [2]: ≥ 171 µM
MIC [4]: 56.8 µM (≈ 63.9 µg/mL)
MIC [7]: 19.5 µM (≈ 22 µg/mL)
MIC [5]: ≥ 512 µM

SMILES: CC[C@H](C)[C@H](NC(=O)[C@H](CCCCN)NC(=O)[C@H](CCCN=C(N)N)NC(=O)[C@@H]1CCCN1C(=O)[C@@H](NC(=O)[C@H](CC(C)C)NC(=O)[C@H](CCCCN)NC(=O)[C@H](CC(C)C)NC(=O)[C@@H](N)Cc1ccccc1)[C@@H](C)CC)C(=O)N[C@H](C(=O)N[C@H](C(=O)N[C@@H](C)C(=O)N[C@@H](CC(C)C)C(N)=O)[C@@H](C)O)C(C)C [FLKLIPRKIVTAL]
MIC (Escherichia coli W160-37): ≥ 265 µM

SMILES: CC[C@H](C)[C@H](NC(=O)[C@H](CO)NC(=O)CNC(=O)[C@H](CC(C)C)NC(=O)[C@@H](NC(=O)CNC(=O)[C@H](Cc1ccccc1)NC(=O)[C@H](CC(C)C)NC(=O)CN)C(C)C)C(=O)N[C@@H](C)C(=O)N[C@@H](CCCCN)C(=O)N[C@@H](Cc1cnc[nH]1)C(=O)N[C@H](C(=O)N[C@@H](CC(C)C)C(=O)N1CCC[C@H]1C(=O)N[C@@H](Cc1cnc[nH]1)C(=O)N[C@H](C(=O)N[C@H](C(=O)N1CCC[C@H]1C(=O)N[C@H](C(=O)N[C@H](C(=O)N[C@@H](C)C(=O)N[C@@H](CCC(=O)O)C(=O)N[C@@H](CCCCN)C(=O)N[C@@H](CC(C)C)C(N)=O)[C@@H](C)CC)C(C)C)C(C)C)C(C)C)C(C)C [GLFGVLGSIAKHVLPHVVPVIAEKL]
MIC (Bacillus cereus): ≥ 38.5 µM
MIC [19]: ≥ 35.4 µM
MIC (Escherichia coli): > 38.5 µM
MIC (Leuconostoc lactis): 4.63 µM (≈ 12 µg/mL)
MIC (Listeria innocua): 19.3 µM (≈ 50 µg/mL)
MIC (Micrococcus luteus): 19.3 µM (≈ 50 µg/mL)
MIC (Pasteurella multocida): 19.3 µM (≈ 50 µg/mL)
MIC (Staphylococcus aureus): 4.63 µM (≈ 12 µg/mL)
MIC [20]: 9.64 µM (≈ 25 µg/mL)
MIC (Streptococcus uberis): 19.3 µM (≈ 50 µg/mL)

Next, values leading:

MIC [1]: 3.2 µM (≈ 3.87 µg/mL)
MIC [2]: 3.2 µM (≈ 3.87 µg/mL)
MIC [3]: 3.2 µM (≈ 3.87 µg/mL)
MIC [4]: 9.5 µM (≈ 11.5 µg/mL)
MIC [5]: 2.5 µM (≈ 3.03 µg/mL)
SMILES: CC[C@H](C)[C@H](NC(=O)[C@H](Cc1c[nH]c2ccccc12)NC(=O)[C@H](CCCCN)NC(=O)[C@H](CC(C)C)NC(=O)[C@H](CC(C)C)NC(=O)CN)C(=O)N[C@@H](CCCCN)C(=O)N[C@@H](CCCCN)C(=O)N[C@@H](CC(C)C)C(=O)N[C@@H](CC(C)C)C(N)=O [GLLKWIKKLL]

MIC (Escherichia coli W160-37): 4.57 µM (≈ 7 µg/mL)
MIC (Pseudomonas aeruginosa): 19.6 µM (≈ 30 µg/mL)
MIC (Staphylococcus aureus): 3.27 µM (≈ 5 µg/mL)
SMILES: CC[C@H](C)[C@H](NC(=O)[C@H](Cc1c[nH]c2ccccc12)NC(=O)[C@H](CCCCN)NC(=O)[C@H](CO)NC(=O)[C@H](CC(C)C)NC(=O)[C@H](Cc1ccccc1)NC(=O)[C@@H](NC(=O)[C@H](CCCCN)NC(=O)[C@H](CC(C)C)NC(=O)[C@H](CC(C)C)NC(=O)[C@H](CCCCN)NC(=O)[C@@H]1CCCN1)[C@@H](C)O)C(=O)NCC(=O)O [PKLLKTFLSKWIG]

MIC [3]: 12.5 µM (≈ 32.4 µg/mL)
MIC [8]: 50 µM (≈ 130 µg/mL)
MIC [4]: 100 µM (≈ 259 µg/mL)
MIC [9]: 50 µM (≈ 130 µg/mL)
MIC [5]: 25 µM (≈ 64.8 µg/mL)
MIC [6]: ≥ 50 µM
SMILES: CC[C@H](C)[C@H](NC(=O)[C@H](CC(=O)O)NC(=O)[C@H](CCCCN)NC(=O)[C@H](C)NC(=O)[C@H](CC(C)C)NC(=O)CNC(=O)[C@H](CCCCN)NC(=O)[C@H](CC(C)C)NC(=O)[C@@H](NC(=O)[C@H](CC(=O)O)NC(=O)[C@@H](NC(=O)[C@@H](NC(=O)CN)C(C)C)C(C)C)[C@@H](C)CC)C(=O)N[C@@H](C)C(=O)NCC(=O)N[C@@H](Cc1cnc[nH]1)C(=O)N[C@@H](CC(C)C)C(=O)N[C@@H](C)C(=O)N[C@@H](CO)C(=O)N[C@@H](CCCCN)C(=O)N[C@H](C(=O)N[C@@H](CCSC)C(=O)N[C@@H](CC(N)=O)C(=O)N[C@@H](CCCCN)C(=O)N[C@@H](CC(C)C)C(N)=O)C(C)C [GVVDILKGLAKDIAGHLASKVMNKL]

MIC [10]: ≥ 63.6 µM
MIC [3]: 31.8 µM (≈ 40 µg/mL)
MIC [11]: ≥ 63.6 µM
MIC [12]: ≥ 63.6 µM
MIC [4]: 63.6 µM (≈ 79.9 µg/mL)
MIC [13]: > 63.6 µM
MIC [14]: ≥ 63.6 µM
MIC [15]: 31.8 µM (≈ 40 µg/mL)
MIC [16]: ≥ 63.6 µM
MIC [17]: > 63.6 µM
SMILES: CC(C)C[C@H](NC(=O)[C@H](Cc1c[nH]c2ccccc12)NC(=O)[C@H](CCCCN)NC(=O)[C@H](CCCCN)NC(=O)[C@H](CC(C)C)NC(=O)[C@H](Cc1c[nH]c2ccccc12)NC(=O)[C@H](CCCCN)NC(=O)[C@@H](N)CCCCN)C(=O)N[C@@H](CCCCN)C(N)=O [KKWLKKWLK]

MIC (Escherichia coli MG1655): 4 µM and 8 µM
MIC [18]: ≥ 38.9 µM
SMILES: CC[C@H](C)[C@H](NC(=O)[C@H](Cc1c[nH]c2ccccc12)NC(=O)[C@H](CO)NC(=O)CNC(C)=O)C(=O)N[C@@H](CCCCN)C(=O)N[C@@H](CCCN=C(N)N)C(=O)N[C@@H](CC(C)C)C(=O)N[C@@H](CC(N)=O)C(=O)N[C@@H](CO)C(=O)N[C@@H](Cc1c[nH]c2ccccc12)C(=O)N[C@@H](CC(C)C)C(=O)N[C@@H](CCCN=C(N)N)C(=O)N[C@@H](CCCCN)C(N)=O [GSWIKRLNSWLRK]

MIC [21]: 0.226 µM (≈ 0.499 µg/mL)
MIC (Acinetobacter baumannii): 0.226 µM (≈ 0.499 µg/mL)
MIC [22]: 0.113 µM (≈ 0.25 µg/mL)
MIC [23]: 3.62 µM (≈ 7.99 µg/mL)
MIC [24]: 0.452 µM (≈ 0.998 µg/mL)
MIC [3]: 0.113 µM (≈ 0.25 µg/mL)
MIC [25]: 0.113 µM (≈ 0.25 µg/mL)
MIC [8]: 0.226 µM (≈ 0.499 µg/mL)
MIC [26]: 0.904 µM (≈ 2 µg/mL)
MIC (Klebsiella pneumoniae): 3.62 µM (≈ 7.99 µg/mL)
MIC [4]: 0.452 µM (≈ 0.998 µg/mL)
MIC (Pseudomonas aeruginosa): 1.81 µM (≈ 3.99 µg/mL)
MIC [27]: 1.81 µM (≈ 3.99 µg/mL)
SMILES: CC(C)[C@@H]1NC(=O)[C@H](CCCN=C(N)N)NC(=O)[C@H](Cc2ccccc2)NC(=O)[C@@H](NC(=O)[C@H](Cc2c[nH]c3ccccc23)NC(=O)[C@@H](N)CCCCN)CSSC[C@@H](C(=O)N[C@@H](CCCN=C(N)N)C(=O)O)NC(=O)[C@H](CCCN=C(N)N)NC(=O)[C@H](CCCN=C(N)N)NC(=O)[C@H](Cc2ccc(O)cc2)NC(=O)[C@@H]2CSSC[C@H](NC1=O)C(=O)N[C@@H](Cc1ccc(O)cc1)C(=O)N[C@@H](CCCN=C(N)N)C(=O)NCC(=O)NCC(=O)N2 [KWCFRVCYRGGCYRRCR]

Source: DBAASP
